Tested on: Factor Xa
Experiment: Factor Xa assay (HEPRN) of heparin biological activity
Type: biochemical
Experimental: The silica sol loaded with heparin was prepared by a two step sol-gel process using acid as a catalyst (Ellerby et al. 1992). The following reagents were used, tetraethoxysilane (TEOS) (Aldrich), deionized water, nitric acid (HNO3) (Merck), acetic acid (CH3COOH) (Merck), ammonium hydroxide (NH4OH) (Merck)) and heparin sodium salt (Orion Corporation, Finland). The biological activity of the used heparin was 84 IU/mg measured by Factor Xa assay (HEPRN). The first step of the reaction series was a hydrolysis reaction between water and alkoxide. The mol ratio of the silica sol was TEOS:H2O:HNO3=1:15:0.0015 and TEOS:H2O:CH3COOH=1:15:0.026, respectively. Modification of the nitric acid catalyzed sol was carried out by co-hydrolysis of TEOS with the following organomodified (i.e. alkylsubstituted) alkoxysilanes: dimethyldiethoxysilane Me2Si(OEt)2 (DMDES) (Lancaster), methyltriethoxysilane MeSi(OEt)3(METES) (Aldrich) or ethyltriethoxysilane EtSi(OEt)3 (ETES) (Lancaster). For the partial substitution of TEOS, 10 or 25 mol-% organomodified alkoxysilane was used. After the first step, i.e. hydrolysis reaction, pH was raised to 4.54.8 with base (0.1 or 1 M NH4OH) before heparin addition. […] The concentration of heparin in silica sol ranged from 1 wt % to 4 wt % calculated on the sol, corresponding to 6.8–29.2 wt % in the air dried silica xerogel. […]

In the case of heparin, the “biological activity of the used heparin” value is reported as 84 IU/mg.
